Read-outs that look alike come from different tables or passages of the source.
What was measured:
mice = test: Accelerating rotarod test; assay type: in vivo, mouse; conditions: 15 min after dosing
Experimental: As a prerequisite for interpreting itch behavior experiments, we first tested motor function after systemic dosing.
Mice were placed on a rotarod treadmill (Ugo Basile, Italy) at increasing speed (4–40 rpm over 300 s) and trained for 4–5 consecutive days. Only mice that reached 300 s without falling off during the training sessions were included in the experiment. In the vertical pole test, the mice were placed head‐upward on top of a vertical pole with a rough surface (diameter, 1 cm; height, 40 cm), and the time until the animals reached the ground was recorded (cut‐off time 20 s). Only mice that reached the ground within 10 s in the baseline measurements were included in the experiment. […] The means of three trials at each time point were calculated for further analyses.

Slack−/− mice = test: Chloroquine-induced itch behavior, Slack knockout mice; assay type: in vivo, mouse
Experimental: We then assessed the antipruritic efficacy of compound 6 in a model of histamine‐independent itching induced by the antimalarial drug chloroquine.
Three to four days before the day of the experiment, the fur on the dorsolateral aspect of the neck was shaved under brief isoflurane anesthesia. On the testing day, the mice were habituated to a Plexiglas cylinder (30 cm in diameter) for 30 min. Compound 6 hydrochloride or vehicle were i.p. or p.o. administered, and 15 min later, the pruritogens chloroquine (200 µg), SLIGRL (100 µg), β‐alanine (100 µg), or histamine (800 µg), all dissolved in 0.9% saline (20 µL), were injected subcutaneously into the nape of the neck.^[ [29] ^] Number of scratching bouts directed toward the nape of the neck was assessed over 30 min by videotaping. In experiments with the Slack inhibitor, compound 31 (ref. [27]; 30 mg kg^−1 in 0.9% NaCl with 2% DMSO and 10% Kolliphor) was i.p. administered 5 min prior to compound 6.

human D3 receptor = biological target: T1, human D3 receptor (Homo sapiens, UniProt P35462); test: [3H]-spiperone competition binding assay, D3; conditions: for Ki: mean [CI 95%]
T1 construct: expressed in transfected cells; host or cells: CHO
Experimental: CHO cells stably expressing human dopamine D2short (D2R) and D3 receptor (D3R) were washed and harvested using PBS. […] The cell membrane homogenate was centrifuged (20 000 × g, 20 min, 4 °C), and the resulting cell pellet was resuspended in the binding buffer. Crude membrane extracts were kept at −80 °C until use. Before starting the experiments, cell membranes were thawed, homogenized by sonication (3 × 10 s), and stored in an ice‐cold binding buffer. […] Assays were performed at least in triplicate with appropriate concentrations ranging from 0.01 nM to 100 µM of the test compound. Non‐specific binding was determined using 10 µM haloperidol. By filtering through GF/B filters pretreated with 0.3% (m/v) polyethyleneimine, the bound radioligand was separated from free radioligand using a cell harvester. Radioactivity was measured using liquid scintillation counting. Data were evaluated using the GraphPad Prism 9 software (San Diego, CA, USA) with a nonlinear regression fit.

[1] = Pharmacokinetics in mice (plasma and brain levels, LC-MS); assay type: in vivo; conditions: mouse
Experimental: To prepare for in vivo studies, we investigated the pharmacokinetic properties of compound 6. […] For comparison, we determined the plasma and brain loxapine levels. […] Collectively, the pharmacological and pharmacokinetic profiles of compound 6 make it an excellent molecule for in vivo pharmacodynamic studies.
Pharmacokinetic experiments were performed by Bienta (Enamine Biology Services, Kiev, Ukraine). Study design, animal selection, handling, and treatment were performed in accordance with the Enamine PK study protocols and the Institutional Animal Care and Use Guidelines. Male C57BL/6J mice (11–16 weeks old) were used in this study. The animals were fasted for 4 h before dosing. […] Each timepoint treatment group included three animals, and a control group was employed, including one animal.
Before collecting blood and brain tissue, the mice were anesthetized with 2,2,2‐tribromoethanol (150 mg kg^−1 i.p.). In studies with i.p. compound administration, the chest was opened, an incision was made in the right atrium, whole blood was collected into tubes containing K2EDTA, and the animals were perfused with saline (10 mL) prior to the excision of the brain tissue (left lobe). In studies with p.o. or i.v. delivery of compounds, blood was collected from the orbital sinus in microtainers containing K3EDTA, the animals were sacrificed by cervical dislocation, and the brain tissue (left lobe) was excised. After collection, the blood samples were centrifuged for 10 min at 3000 rpm, and the brain samples were weighed. All samples were immediately processed, flash‐frozen, and stored at −70 °C until subsequent analysis.
The compound levels in the plasma and brain samples were determined using liquid chromatography–tandem mass spectrometry (LC‐MS/MS) by a staff member from Bienta. Pharmacokinetic data analysis was performed using non‐compartmental, bolus injection, or extravascular input analysis models with WinNonlin 5.2 (PharSight). Data below the lower limit of quantitation were presented as missing data to improve the validity of the half‐life calculations. For each treatment condition, the final concentration values obtained at each time point were analyzed for outliers using Grubbs' test, with the level of significance set at p < 0.05. The sum of the AUC0‐inf (area under the concentration‐time curve from zero to time infinity) was used to estimate the ratiobrain/plasma (concentration ratio of the compound in the brain and plasma).

[2] = male, C57BL/6J, ip, I.P. 10 mg/kg, brain
[3] = male, C57BL/6J, ip, I.P. 10 mg/kg, plasma
[4] = male, C57BL/6J, iv, I.V. 1 mg/kg, brain
[5] = male, C57BL/6J, iv, I.V. 1 mg/kg, plasma
[6] = male, C57BL/6J, po, P.O. 10 mg/kg, brain
[7] = male, C57BL/6J, po, P.O. 10 mg/kg, plasma
[8] = male, C57BL/6J, ip, I.P. 2.5 mg/kg, brain
[9] = male, C57BL/6J, ip, I.P. 2.5 mg/kg, plasma

T1 sequence (P35462 whole entry): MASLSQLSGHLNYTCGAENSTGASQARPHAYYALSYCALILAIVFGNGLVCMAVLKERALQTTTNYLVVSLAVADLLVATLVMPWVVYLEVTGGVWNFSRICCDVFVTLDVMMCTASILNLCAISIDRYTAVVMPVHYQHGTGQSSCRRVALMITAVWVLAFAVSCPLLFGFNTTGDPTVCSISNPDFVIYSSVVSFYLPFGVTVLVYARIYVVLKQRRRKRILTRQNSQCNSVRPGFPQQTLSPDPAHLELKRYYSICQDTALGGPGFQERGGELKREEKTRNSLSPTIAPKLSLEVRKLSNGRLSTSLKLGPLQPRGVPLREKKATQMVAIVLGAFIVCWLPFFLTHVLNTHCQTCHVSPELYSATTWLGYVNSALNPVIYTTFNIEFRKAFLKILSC

O=C(O)COCCN1CCN(C2=Nc3ccccc3Oc3ccc(Cl)cc32)CC1 [Compound 6]
motor function, accelerating rotarod test (mice; 3–30 mg i.p.): did not impair motor function | chloroquine-induced scratching (Slack−/− mice; Slack−/− mice, i.p.): did not significantly alter | fold lower affinity against D3 as compared to loxapine (human D3 receptor): ≈ 31 fold | Ki (human D3 receptor): 3.52 µM | AUC(0-inf) [1, 2]: 6780 ng·h/mL | Cmax [1, 2]: 5490 ng/mL | Tmax [1, 2]: 15 min | half-life ([1]; male, C57BL/6J, ip, I.P. 10 mg/kg, brain, read-out: t1/2): 39.7 min | AUC(0-inf) [1, 3]: 5600 ng·h/mL | Cmax [1, 3]: 6280 ng/mL | Tmax [1, 3]: 15 min | half-life ([1]; male, C57BL/6J, ip, I.P. 10 mg/kg, plasma, read-out: t1/2): 35 min | AUC(0-inf) [1, 4]: 520 ng·h/mL | Cmax [1, 4]: 493 ng/mL | Tmax [1, 4]: 15 min | half-life ([1]; male, C57BL/6J, iv, I.V. 1 mg/kg, brain, read-out: t1/2): 62.1 min | AUC(0-inf) [1, 5]: 473 ng·h/mL | Cmax [1, 5]: 562 ng/mL | half-life ([1]; male, C57BL/6J, iv, I.V. 1 mg/kg, plasma, read-out: t1/2): 52.5 min | half-life ([1]; male, C57BL/6J, plasma and brain, ip, 10 mg kg−1 i.p., first-order kinetics, read-out: half-life in the plasma and brain): ~35 min | AUC(0-inf) [1, 6]: 3750 ng·h/mL | Cmax [1, 6]: 2460 ng/mL | Tmax [1, 6]: 15 min | half-life ([1]; male, C57BL/6J, po, P.O. 10 mg/kg, brain, read-out: t1/2): 71.9 min | AUC(0-inf) [1, 7]: 4070 ng·h/mL | Cmax [1, 7]: 3140 ng/mL | Tmax [1, 7]: 15 min | half-life ([1]; male, C57BL/6J, po, P.O. 10 mg/kg, plasma, read-out: t1/2): 67.4 min | blood–brain barrier crossing ([1]; 10 mg kg−1 i.p.): readily crossed the blood–brain barrier

CN1CCN(C2=Nc3ccccc3Oc3ccc(Cl)cc32)CC1 [Loxapine, reference compound]
motor function, accelerating rotarod test (mice; dose of ≥ 0.39 mg kg−1 i.p.): markedly reduced the ability of the mice to perform | chloroquine-induced scratching behavior (Slack−/− mice; Slack knockout mice, systemic low dose, preliminary experiments): did not affect | Ki (human D3 receptor): 0.112 µM | Kp ([1]; male, C57BL/6J, brain and plasma, ip, 2.5 mg kg−1 i.p., from AUC0-inf, read-out: ratio brain/plasma): 5.12 | AUC(0-inf) [1, 8]: 913 ng·h/mL | Cmax [1, 8]: 493 ng/mL | Tmax [1, 8]: 15 min | half-life ([1]; male, C57BL/6J, ip, I.P. 2.5 mg/kg, brain, read-out: t1/2): 82.2 min | AUC(0-inf) [1, 9]: 178 ng·h/mL | Cmax [1, 9]: 143 ng/mL | Tmax [1, 9]: 15 min | half-life ([1]; male, C57BL/6J, ip, I.P. 2.5 mg/kg, plasma, read-out: t1/2): 61.9 min

— paper PMC11022729 (Advanced Science, 2024)
